This series can be described thus: Bioavailability: plasma concentration after single oral administration to rats. Format: in vivo, male Sprague-Dawley rats. To be noted: for AUC: 50 mg/Kg po, 3 rats; for Detection of the administered phosphate compound itself in the blood samples / Delivery of parent drug (PL-100, PL-337) by aqueous dosing compared to non-aqueous formulations of PL-100 and PL-337: 50 mg/kg po; for Detection of the administered phosphate compound itself in the blood samples: delivered as aqueous solutions, HPLC-MS of plasma; for Delivery of parent drug (PL-100, PL-337) by aqueous dosing compared to non-aqueous formulations of PL-100 and PL-337: rats. The procedure:
To assess the extent of in vivo cleavage of the phosphate group from the putative compounds, PL-100, PL-462 (based on PL-100), PL-337 and PL-515 (based on PL-337) compounds were administered per os (po) (50 mg/kg) to male Sprague-Dawley rats and their plasma concentration measured at different time intervals post-administration. All test articles (PL-100, PL-462, PL-337 and PL-515) were prepared in different vehicle at the final concentration of 25 mg/mL. The vehicle composition is as follows: (1) 20% ethanol; 50% propylene glycol; 0.05% w/v Tween 20 and water (Mix); (2) PBS buffer (PBS). Test articles were administered to male Sprague-Dawley rats at a single oral dose of 50 mg/kg. Each article was tested in three rats. Blood samples (0.2-0.3 mL) were collected at the post-dose time of 10, 20, 40, 60, 120, 180 and 360 minutes. The harvested blood was centrifuged to isolate plasma. The resulting plasma was separated and stored at −70° C. Plasma samples together with standards and quality control samples were treated to precipitate proteins, then analyzed by HPLC-MS, for the presence of PL-462, PL-100, PL-515 and PL-337.

Setting [1] is: vehicle Mix (20% ethanol; 50% propylene glycol; 0.05% w/v Tween 20 and water).
Where [2] appears, read: vehicle PBS, parent drug (PL-100 or PL-337) detected in plasma after dosing the phosphate compound.

The compound `COC(=O)N[C@H](C(=O)NCCCC[C@@H](CO)N(CC(C)C)S(=O)(=O)c1ccc(N)cc1)C(c1ccccc1)c1ccccc1` [PL-100, (1S,5S)-(1-{5-[(4-amino-benzenesulfonyl)-isobutyl-amino]-6-hydroxy-hexylcarbamoyl}-2,2-diphenyl-ethyl)-carbamic acid methyl ester] yielded an AUC under setting [1] of 0.675 ± 0.171 μg/hr*ml.

`COC(=O)N[C@H](C(=O)NCCCC[C@@H](CO)N(CC(C)C)S(=O)(=O)c1ccc(N)c(F)c1)C(c1ccccc1)c1ccccc1` [PL-337, (1-{5-[(4-amino-3-fluoro-benzenesulfonyl)-isobutyl-amino]-6-hydroxy-hexylcarbamoyl}-2,2-diphenyl-ethyl)-carbamic acid methyl ester] gave an AUC under setting [1] of 1.180 ± 0.196 μg/hr*ml.

For `COC(=O)N[C@H](C(=O)NCCCC[C@@H](COP(=O)([O-])[O-])N(CC(C)C)S(=O)(=O)c1ccc(N)cc1)C(c1ccccc1)c1ccccc1.[Na+].[Na+]` [PL-462, (1S,5S)-(1-{5-[(4-amino-benzenesulfonyl)-isobutyl-amino]-6-phosphonooxy-hexylcarbamoyl}-2,2-diphenyl-ethyl)-carbamic acid methyl ester sodium salt], the “Detection of the administered phosphate compound itself in the blood samples” value is “None of the PL-462 and PL-515 compounds, delivered as aqueous solutions, are detected in the blood samples”; the “Delivery of parent drug (PL-100, PL-337) by aqueous dosing compared to non-aqueous formulations of PL-100 and PL-337” value is “equivalent to slightly superior delivery”. The AUC under setting [2] was determined as 0.816 ± 0.295 μg/hr*ml.

Consider `COC(=O)N[C@H](C(=O)NCCCC[C@@H](COP(=O)(O)O)N(CC(C)C)S(=O)(=O)c1ccc(N)c(F)c1)C(c1ccccc1)c1ccccc1` [PL-515, (1S,5S)-(1-{5-[(4-amino-3-fluoro-benzenesulfonyl)-isobutyl-amino]-6-phosphonooxy-hexylcarbamoyl}-2,2-diphenyl-ethyl)-carbamic acid methyl ester], for which the “Detection of the administered phosphate compound itself in the blood samples” value is “None of the PL-462 and PL-515 compounds, delivered as aqueous solutions, are detected in the blood samples”; the “Delivery of parent drug (PL-100, PL-337) by aqueous dosing compared to non-aqueous formulations of PL-100 and PL-337” value was “equivalent to slightly superior delivery”. Besides, the AUC under setting [2] is reported as 1.075 ± 0.625 μg/hr*ml.
